# Activity calls are given as the source filed them. The rule behind the calls is not given here.
# Target: Ubiquitin carboxyl-terminal hydrolase 8 (Homo sapiens) (UniProt P40818)
# Experiment: Ubiquitin-specific protease 8 inhibitors, concentration-effect, biochemical, validation of initial actives (AID 1645862);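 note: potency reflects inhibition of USP8 cleavage of a ubiquitin rhodamine substrate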
# Details: recombinant USP8 deubiquitinase activity assay
# Ubiquitin carboxyl-terminal hydrolase 8 (Homo sapiens), sequence (P40818 whole entry, looked up): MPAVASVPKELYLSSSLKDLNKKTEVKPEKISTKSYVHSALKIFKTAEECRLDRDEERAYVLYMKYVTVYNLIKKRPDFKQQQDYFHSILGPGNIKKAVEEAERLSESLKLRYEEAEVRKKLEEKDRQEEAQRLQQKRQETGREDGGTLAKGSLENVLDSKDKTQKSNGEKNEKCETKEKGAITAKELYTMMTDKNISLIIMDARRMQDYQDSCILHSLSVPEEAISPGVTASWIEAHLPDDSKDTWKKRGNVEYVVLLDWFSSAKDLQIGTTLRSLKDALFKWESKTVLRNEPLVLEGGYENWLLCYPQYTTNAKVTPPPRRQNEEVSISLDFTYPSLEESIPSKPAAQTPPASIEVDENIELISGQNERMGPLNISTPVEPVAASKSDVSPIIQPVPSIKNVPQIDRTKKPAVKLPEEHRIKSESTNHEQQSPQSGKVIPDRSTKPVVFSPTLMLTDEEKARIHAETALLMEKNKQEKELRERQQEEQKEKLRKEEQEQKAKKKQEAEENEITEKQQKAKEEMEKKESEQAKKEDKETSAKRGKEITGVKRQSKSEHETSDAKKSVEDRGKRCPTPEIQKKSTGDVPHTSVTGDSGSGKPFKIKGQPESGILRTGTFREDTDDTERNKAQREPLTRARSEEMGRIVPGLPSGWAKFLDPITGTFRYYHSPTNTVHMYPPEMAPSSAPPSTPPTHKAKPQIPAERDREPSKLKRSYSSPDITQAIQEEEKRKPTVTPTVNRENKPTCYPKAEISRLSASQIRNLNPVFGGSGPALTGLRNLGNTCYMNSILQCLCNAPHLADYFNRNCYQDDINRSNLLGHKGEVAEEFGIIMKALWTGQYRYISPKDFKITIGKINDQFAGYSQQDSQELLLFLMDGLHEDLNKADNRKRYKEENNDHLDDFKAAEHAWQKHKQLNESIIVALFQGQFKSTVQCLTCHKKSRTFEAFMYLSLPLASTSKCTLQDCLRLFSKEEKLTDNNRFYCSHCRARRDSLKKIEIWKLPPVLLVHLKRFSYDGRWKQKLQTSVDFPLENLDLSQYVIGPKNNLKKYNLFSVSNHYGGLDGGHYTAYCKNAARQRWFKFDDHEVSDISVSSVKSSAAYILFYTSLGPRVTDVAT
row,Compound,IC50
1,Cc1ccc2cc(-c3noc(CCC(=O)NC4CCCC4)n3)c(=O)[nH]c2c1,> 40 µM (inactive)
2,COc1ccc(Cn2c(=O)[nH]c3cc(C(=O)NCCCN4CCN(c5cccc(Cl)c5)CC4)ccc3c2=O)cc1,> 40 µM (inactive)
3,O=C(COC(=O)c1ccc(NS(=O)(=O)c2ccc(F)c(F)c2)cc1)Nc1ccc(OCc2ccccc2)cc1,> 40 µM (inactive)
4,CO/C=C/C(=O)c1cc2cnc3c(=N)cc(NC(C)=O)c([nH]1)c23,1.44 µM
5,Cc1ccc(C2c3[nH]c4ccccc4c3C[C@H]3C(=O)N(c4ccc(C(=O)NCCc5ccccc5)cc4)C(=O)N23)cc1 (some centres not stated),> 40 µM (inactive)
6,Oc1cccc2nc3c(O)cccc3nc12,8.85 µM
7,COc1cccc(NC(=O)C2C3C=CC4(O3)C2C(=O)N(CCc2ccc(Cl)cc2)C4C(=O)NC2CCCCC2)c1 (configuration not stated),> 40 µM (inactive)
8,COc1ccc(OC)c2c(C)cc(N3CC(C)CC(C)C3)nc12 (configuration not stated),> 40 µM (inactive)

# Results, then the molecule that gave them:
row,IC50,Compound
1,> 40 µM (inactive),O=C(c1cc2occc2c(Nc2ccc(F)cc2)n1)N1CCN(c2ccccc2)CC1
2,> 40 µM (inactive),Cc1c(-c2nc(-c3ccccc3Cl)no2)nnn1-c1cccc(F)c1
3,> 40 µM (inactive),O=C(Nc1ccc(F)cc1F)NC1CCN(c2ccccc2)C1=O (configuration not stated)
4,> 40 µM (inactive),COc1ccc(-c2noc(CC(=O)Nc3cccc(OC)c3)n2)cc1
5,> 40 µM (inactive),Cn1c(C(=O)NCc2ccccn2)cc2c(=O)[nH]c3ccccc3c21
6,> 40 µM (inactive),Cc1ccc(NC(=O)c2cc(-c3ccccn3)nc3c(Cl)cccc23)nc1
7,> 40 µM (inactive),CC(=O)Nc1ccc(Cc2nc(-c3ccc4c(c3)nc(C)c(=O)n4C3CCCC3)no2)cc1
8,> 40 µM (inactive),O=C1CC(c2nc3ccccc3n2CCOc2ccc(Cl)cc2)CN1c1ccccc1 (configuration not stated)
9,> 40 µM (inactive),Cc1ccccc1NC(=O)Nc1cccc(-c2nnc(-c3ccccc3)o2)c1

# Source: PubChem BioAssay AID1645862 (Buhrlage Lab, Dana-Farber Cancer Institute and Novartis …, 2021)
